# Laboratory results as given in paper PMC10289903 (Investigational New Drugs, 2023).
# Read-outs that look alike come from different tables or passages of the source.
# Test system: patients with locally advanced or metastatic solid tumors
# Source text: This was a Phase Ib, multicenter, open-label, dose-finding clinical trial (NCT02610075). […] Three types of treatment schedules were investigated: cohorts bid 1, bid 2, qd 1.1, qd 2.1 and qd 3.1 received bid or qd treatment on a 5/9 schedule (5 days on treatment, followed by 9 days off) on a 14-day cycle. Cohorts qd 1.2, qd 2.2, and qd 3.2 received treatment on a 5/2 schedule (5 days on followed by 2 days off for 2 of 3 weeks) in a 21-day cycle. Cohorts qd 2.3 and qd 3.3 received treatment on a weekly 5/2 schedule in a 21-day cycle (Table 1). The highest dose level(s) at which less than one-third of evaluable patients (none of 3 patients or 1 of 6 patients) experienced a dose-limiting toxicity (DLT) was declared the MTD.
# The per protocol analysis set was defined as a subset of the full analysis set, excluding subjects having an important protocol deviation, to be used for analyses of efficacy endpoints if appropriate.
# [1] = qd 3.3: 300 mg 5/2 weekly (n=2)
structure (smiles),measurement,setting,value
"C=CCn1c(=O)c2cnc(Nc3ccc(N4CCN(C)CC4)cc3)nc2n1-c1cccc(C(C)(C)O)n1 [adavosertib, Adavosertib]",Dehydration (treatment-emergent AE),qd 3.1: 300 mg qd 5/9 (n=4),1 (25.0) n (%)
same,Dehydration (treatment-related AE),qd 3.1: 300 mg qd 5/9 (n=4),0 n (%)
same,Diarrhea (treatment-emergent AE),qd 3.1: 300 mg qd 5/9 (n=4),0 n (%)
same,Diarrhea (treatment-related AE),qd 3.1: 300 mg qd 5/9 (n=4),0 n (%)
same,Dizziness (treatment-emergent AE),qd 3.1: 300 mg qd 5/9 (n=4),2 (50.0) n (%)
same,Dyspepsia (treatment-emergent AE),qd 3.1: 300 mg qd 5/9 (n=4),0 n (%)
same,Dyspepsia (treatment-related AE),qd 3.1: 300 mg qd 5/9 (n=4),0 n (%)
same,Dyspnea (treatment-emergent AE),qd 3.1: 300 mg qd 5/9 (n=4),2 (50.0) n (%)
same,Edema peripheral (treatment-emergent AE),qd 3.1: 300 mg qd 5/9 (n=4),2 (50.0) n (%)
same,Fall (treatment-emergent AE),qd 3.1: 300 mg qd 5/9 (n=4),0 n (%)
same,Fatigue (treatment-emergent AE),qd 3.1: 300 mg qd 5/9 (n=4),2 (50.0) n (%)
same,Fatigue (treatment-related AE),qd 3.1: 300 mg qd 5/9 (n=4),1 (25.0) n (%)
same,Headache (treatment-emergent AE),qd 3.1: 300 mg qd 5/9 (n=4),0 n (%)
same,Hypokalemia (treatment-emergent AE),qd 3.1: 300 mg qd 5/9 (n=4),0 n (%)
same,Insomnia (treatment-emergent AE),qd 3.1: 300 mg qd 5/9 (n=4),1 (25.0) n (%)
same,Muscle spasms (treatment-emergent AE),qd 3.1: 300 mg qd 5/9 (n=4),1 (25.0) n (%)
same,Myalgia (treatment-emergent AE),qd 3.1: 300 mg qd 5/9 (n=4),1 (25.0) n (%)
same,Myalgia (treatment-related AE),qd 3.1: 300 mg qd 5/9 (n=4),1 (25.0) n (%)
same,Nausea (treatment-emergent AE),qd 3.1: 300 mg qd 5/9 (n=4),2 (50.0) n (%)
same,Nausea (treatment-related AE),qd 3.1: 300 mg qd 5/9 (n=4),2 (50.0) n (%)
same,Neutropenia (treatment-emergent AE),qd 3.1: 300 mg qd 5/9 (n=4),0 n (%)
same,Neutropenia (treatment-related AE),qd 3.1: 300 mg qd 5/9 (n=4),0 n (%)
same,Pneumonia (treatment-emergent AE),qd 3.1: 300 mg qd 5/9 (n=4),0 n (%)
same,Pyrexia (treatment-emergent AE),qd 3.1: 300 mg qd 5/9 (n=4),0 n (%)
same,Rash (treatment-emergent AE),qd 3.1: 300 mg qd 5/9 (n=4),0 n (%)
same,Thrombocytopenia (treatment-emergent AE),qd 3.1: 300 mg qd 5/9 (n=4),1 (25.0) n (%)
same,Thrombocytopenia (treatment-related AE),qd 3.1: 300 mg qd 5/9 (n=4),1 (25.0) n (%)
same,Urinary tract infection (treatment-emergent AE),qd 3.1: 300 mg qd 5/9 (n=4),0 n (%)
same,Vomiting (treatment-emergent AE),qd 3.1: 300 mg qd 5/9 (n=4),0 n (%)
same,Vomiting (treatment-related AE),qd 3.1: 300 mg qd 5/9 (n=4),0 n (%)
same,Abdominal pain (treatment-emergent AE),qd 3.2: 300 mg qd 5/2 (n=16),4 (25.0) n (%)
same,Abdominal pain (treatment-related AE),qd 3.2: 300 mg qd 5/2 (n=16),2 (12.5) n (%)
same,Alanine aminotransferase increased (treatment-emergent AE),qd 3.2: 300 mg qd 5/2 (n=16),0 n (%)
same,Anemia (treatment-emergent AE),qd 3.2: 300 mg qd 5/2 (n=16),8 (50.0) n (%)
same,Anemia (treatment-related AE),qd 3.2: 300 mg qd 5/2 (n=16),6 (37.5) n (%)
same,Any AE (treatment-emergent),qd 3.2: 300 mg qd 5/2 (n=16),16 (100.0) n (%)
same,Any grade ≥ 3 AE,qd 3.2: 300 mg qd 5/2 (n=16),12 (75.0) n (%)
same,Any treatment-related AE,qd 3.2: 300 mg qd 5/2 (n=16),16 (100.0) n (%)
same,Any treatment-related grade ≥ 3 AE,qd 3.2: 300 mg qd 5/2 (n=16),8 (50.0) n (%)
same,Asthenia (treatment-emergent AE),qd 3.2: 300 mg qd 5/2 (n=16),4 (25.0) n (%)
same,Asthenia (treatment-related AE),qd 3.2: 300 mg qd 5/2 (n=16),2 (12.5) n (%)
same,Back pain (treatment-emergent AE),qd 3.2: 300 mg qd 5/2 (n=16),4 (25.0) n (%)
same,Constipation (treatment-emergent AE),qd 3.2: 300 mg qd 5/2 (n=16),4 (25.0) n (%)
same,Constipation (treatment-related AE),qd 3.2: 300 mg qd 5/2 (n=16),0 n (%)
same,Cough (treatment-emergent AE),qd 3.2: 300 mg qd 5/2 (n=16),2 (12.5) n (%)
same,Decreased appetite (treatment-emergent AE),qd 3.2: 300 mg qd 5/2 (n=16),5 (31.3) n (%)
same,Decreased appetite (treatment-related AE),qd 3.2: 300 mg qd 5/2 (n=16),4 (25.0) n (%)
same,Dehydration (treatment-emergent AE),qd 3.2: 300 mg qd 5/2 (n=16),7 (43.8) n (%)
same,Dehydration (treatment-related AE),qd 3.2: 300 mg qd 5/2 (n=16),1 (6.3) n (%)
same,Diarrhea (treatment-emergent AE),qd 3.2: 300 mg qd 5/2 (n=16),9 (56.3) n (%)
same,Diarrhea (treatment-related AE),qd 3.2: 300 mg qd 5/2 (n=16),9 (56.3) n (%)
same,Dizziness (treatment-emergent AE),qd 3.2: 300 mg qd 5/2 (n=16),4 (25.0) n (%)
same,Dyspepsia (treatment-emergent AE),qd 3.2: 300 mg qd 5/2 (n=16),2 (12.5) n (%)
same,Dyspepsia (treatment-related AE),qd 3.2: 300 mg qd 5/2 (n=16),2 (12.5) n (%)
same,Dyspnea (treatment-emergent AE),qd 3.2: 300 mg qd 5/2 (n=16),3 (18.8) n (%)
same,Edema peripheral (treatment-emergent AE),qd 3.2: 300 mg qd 5/2 (n=16),4 (25.0) n (%)
same,Fall (treatment-emergent AE),qd 3.2: 300 mg qd 5/2 (n=16),3 (18.8) n (%)
same,Fatigue (treatment-emergent AE),qd 3.2: 300 mg qd 5/2 (n=16),9 (56.3) n (%)
same,Fatigue (treatment-related AE),qd 3.2: 300 mg qd 5/2 (n=16),8 (50.0) n (%)
same,Headache (treatment-emergent AE),qd 3.2: 300 mg qd 5/2 (n=16),1 (6.3) n (%)
same,Hypokalemia (treatment-emergent AE),qd 3.2: 300 mg qd 5/2 (n=16),4 (25.0) n (%)
same,Insomnia (treatment-emergent AE),qd 3.2: 300 mg qd 5/2 (n=16),0 n (%)
same,Muscle spasms (treatment-emergent AE),qd 3.2: 300 mg qd 5/2 (n=16),1 (6.3) n (%)
same,Myalgia (treatment-emergent AE),qd 3.2: 300 mg qd 5/2 (n=16),3 (18.8) n (%)
same,Myalgia (treatment-related AE),qd 3.2: 300 mg qd 5/2 (n=16),1 (6.3) n (%)
same,Nausea (treatment-emergent AE),qd 3.2: 300 mg qd 5/2 (n=16),9 (56.3) n (%)
same,Nausea (treatment-related AE),qd 3.2: 300 mg qd 5/2 (n=16),7 (43.8) n (%)
same,Neutropenia (treatment-emergent AE),qd 3.2: 300 mg qd 5/2 (n=16),4 (25.0) n (%)
same,Neutropenia (treatment-related AE),qd 3.2: 300 mg qd 5/2 (n=16),4 (25.0) n (%)
same,Pneumonia (treatment-emergent AE),qd 3.2: 300 mg qd 5/2 (n=16),4 (25.0) n (%)
same,Pyrexia (treatment-emergent AE),qd 3.2: 300 mg qd 5/2 (n=16),3 (18.8) n (%)
same,Rash (treatment-emergent AE),qd 3.2: 300 mg qd 5/2 (n=16),2 (12.5) n (%)
same,Thrombocytopenia (treatment-emergent AE),qd 3.2: 300 mg qd 5/2 (n=16),3 (18.8) n (%)
same,Thrombocytopenia (treatment-related AE),qd 3.2: 300 mg qd 5/2 (n=16),3 (18.8) n (%)
same,Urinary tract infection (treatment-emergent AE),qd 3.2: 300 mg qd 5/2 (n=16),3 (18.8) n (%)
same,Vomiting (treatment-emergent AE),qd 3.2: 300 mg qd 5/2 (n=16),5 (31.3) n (%)
same,Vomiting (treatment-related AE),qd 3.2: 300 mg qd 5/2 (n=16),4 (25.0) n (%)
same,Abdominal pain (treatment-emergent AE),[1],1 (50.0) n (%)
same,Abdominal pain (treatment-related AE),[1],1 (50.0) n (%)
same,Alanine aminotransferase increased (treatment-emergent AE),[1],0 n (%)
same,Anemia (treatment-emergent AE),[1],0 n (%)
same,Anemia (treatment-related AE),[1],0 n (%)
same,Any AE (treatment-emergent),[1],2 (100.0) n (%)
same,Any grade ≥ 3 AE,[1],1 (50.0) n (%)
same,Any treatment-related AE,[1],2 (100.0) n (%)
same,Any treatment-related grade ≥ 3 AE,[1],1 (50.0) n (%)
same,Asthenia (treatment-emergent AE),[1],0 n (%)
same,Asthenia (treatment-related AE),[1],0 n (%)
same,Back pain (treatment-emergent AE),[1],0 n (%)
same,Constipation (treatment-emergent AE),[1],0 n (%)
same,Constipation (treatment-related AE),[1],0 n (%)
same,Cough (treatment-emergent AE),[1],0 n (%)
same,Decreased appetite (treatment-emergent AE),[1],0 n (%)
same,Decreased appetite (treatment-related AE),[1],0 n (%)
same,Dehydration (treatment-emergent AE),[1],0 n (%)
same,Dehydration (treatment-related AE),[1],0 n (%)
same,Diarrhea (treatment-emergent AE),[1],2 (100.0) n (%)
same,Diarrhea (treatment-related AE),[1],2 (100.0) n (%)
same,Dizziness (treatment-emergent AE),[1],1 (50.0) n (%)
same,Dyspepsia (treatment-emergent AE),[1],0 n (%)
same,Dyspepsia (treatment-related AE),[1],0 n (%)
same,Dyspnea (treatment-emergent AE),[1],0 n (%)
same,Edema peripheral (treatment-emergent AE),[1],0 n (%)
same,Fall (treatment-emergent AE),[1],0 n (%)
same,Fatigue (treatment-emergent AE),[1],0 n (%)
same,Fatigue (treatment-related AE),[1],0 n (%)
same,Headache (treatment-emergent AE),[1],0 n (%)
same,Hypokalemia (treatment-emergent AE),[1],1 (50.0) n (%)
same,Insomnia (treatment-emergent AE),[1],0 n (%)
same,Muscle spasms (treatment-emergent AE),[1],0 n (%)
same,Myalgia (treatment-emergent AE),[1],1 (50.0) n (%)
same,Myalgia (treatment-related AE),[1],0 n (%)
same,Nausea (treatment-emergent AE),[1],2 (100.0) n (%)
same,Nausea (treatment-related AE),[1],2 (100) n (%)
same,Neutropenia (treatment-emergent AE),[1],1 (50.0) n (%)
same,Neutropenia (treatment-related AE),[1],1 (50.0) n (%)
